From patent US9708336B2, “Metallo-beta-lactamase inhibitors” (priority 2014, dated 2017) come the findings set out here.

Like-named read-outs stand apart in the source and are kept apart here.

The target of one assay is NDM-1 (Klebsiella pneumoniae, UniProt C7C422). Kind of assay: biochemical. It counts as biochemical. As to conditions: NDM-1 enzyme, CCF2-FA substrate; read-out: NDM-1 IC50.
The next assay deals with IMP-1 (Serratia marcescens, UniProt P52699). Kind of assay: biochemical. It counts as biochemical. Conditions: IMP-1 enzyme, CCF2-FA substrate; read-out: IMP-1 IC50.
The subject of assay [1] is Serratia marcescens expressing IMP-1 (CL5741). Kind of assay: Antibiotic potentiation activity: synergistic concentration (MITC95) with imipenem, OD600 growth. It counts as cell-based. Conditions: Serratia marcescens CL5741 (IMP-1), 95% growth inhibition. The gist of the method: (§1)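 CLB30005 was precultured on Mueller Hinton agar with 8 ug/ml imipenem, the other strains on trypticase soy agar with 5% sheep blood, overnight at 35 °C. Saline suspensions diluted 1:100 in 1.1× CAMHB received compound and 4 μg/ml imipenem, then 22–24 h at 35 °C before absorbance reading.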

Assay [2] has as its system Klebsiella pneumoniae expressing VIM-1 (IHMA599644). The description is as above. It counts as cell-based. As to conditions: Klebsiella pneumoniae IHMA599644 (VIM-1), 95% growth inhibition. The method in brief: as §1
In assay [3] the test system is Escherichia coli expressing NDM-1 (CLB30016). The description is as above. It counts as cell-based. Conditions: (CLB30016, NDM-1), 95% growth inhibition. The method in brief: as §1
A further assay deals with VIM-1 (Pseudomonas aeruginosa (strain ATCC 15692 / DSM 22644 / CIP 104116 / JCM 14847 / LMG 12228 / 1C / PRS 101 / PAO1), UniProt A0A0F7KYQ8). Kind of assay: Enzyme activity: determination of IC50, fluorescence assay with CCF2-FA substrate (VIM-1). As to conditions: CCF2-FA substrate. It counts as biochemical.
[4] abbreviates: VIM-1 enzyme, read-out: VIM-1 IC50.

Sequence of NDM-1 (C7C422 whole entry, looked up, species assumed): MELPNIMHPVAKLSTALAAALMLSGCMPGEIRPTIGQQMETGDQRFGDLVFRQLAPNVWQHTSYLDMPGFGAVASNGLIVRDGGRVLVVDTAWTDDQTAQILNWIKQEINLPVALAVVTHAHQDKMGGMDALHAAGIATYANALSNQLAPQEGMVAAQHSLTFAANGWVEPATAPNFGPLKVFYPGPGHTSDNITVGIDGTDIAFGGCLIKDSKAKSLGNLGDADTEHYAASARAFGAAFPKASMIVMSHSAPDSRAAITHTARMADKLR
Sequence of IMP-1 (P52699 whole entry, looked up): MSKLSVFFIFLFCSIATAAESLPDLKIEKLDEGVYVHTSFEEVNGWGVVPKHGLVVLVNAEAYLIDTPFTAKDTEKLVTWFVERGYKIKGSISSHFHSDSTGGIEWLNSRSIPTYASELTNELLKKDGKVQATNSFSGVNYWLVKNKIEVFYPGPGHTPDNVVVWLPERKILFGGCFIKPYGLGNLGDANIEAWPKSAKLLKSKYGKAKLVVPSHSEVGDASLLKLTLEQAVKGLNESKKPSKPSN

In general, IC50 refers to the concentration that inhibits the measured activity by half. `NS(=O)(=O)c1c(C(F)(F)F)ccc(-c2ccc(CN3CCNCC3)cc2)c1-c1nnn[nH]1` [Example 718, 4′-(piperazin-1-ylmethyl)-2-(1H-tetrazol-5-yl)-4-(trifluoromethyl)biphenyl-3-sulfonamide]: the IC50 stood at 1.51 nM at NDM-1, 2.4 nM at IMP-1 and 1.73 nM at VIM-1 (setting [4]). Further, the “Serratia marcescens MITC95” value in assay [1] came out at 6.25 µM. Moreover, the “Klebsiella pneumoniae MITC95” value in assay [2] is 25 µM. Moreover, in assay [3], the “Escherichia coli MITC95” value is 12.5 µM.
Take `NS(=O)(=O)c1c(C(F)(F)F)ccc(-c2ccc(OC3CNC3)cc2)c1-c1nnn[nH]1` [Example 719, 4′-(azetidin-3-yloxy)-2-(1H-tetrazol-5-yl)-4-(trifluoromethyl)biphenyl-3-sulfonamide]: the IC50 was 3.04 nM at NDM-1; 3.68 nM at IMP-1; 0.553 nM at VIM-1 (VIM-1 IC50, VIM-1 enzyme). In addition, the “Serratia marcescens MITC95” value in assay [1] is 3.125 µM. Besides, the “Klebsiella pneumoniae MITC95” value in assay [2] was found to be 3.125 µM. The “Escherichia coli MITC95” value in assay [3] was found to be 3.125 µM.
In the case of `NS(=O)(=O)c1c(C(F)(F)F)ccc(-c2ccc3c(c2)CNCC3)c1-c1nnn[nH]1` [Example 720, 3-(1,2,3,4-tetrahydroisoquinolin-7-yl)-2-(1H-tetrazol-5-yl)-6-(trifluoromethyl)benzenesulfon-amide], the IC50 was found to be 3.04 nM at NDM-1, 16.1 nM at IMP-1 and 1.04 nM on VIM-1 (setting [4]). Besides, the “Serratia marcescens MITC95” value in assay [1] amounted to 12.5 µM. The “Klebsiella pneumoniae MITC95” value in assay [2] is 3.125 µM. Besides, the “Escherichia coli MITC95” value in assay [3] worked out at 6.25 µM.
In the case of `NS(=O)(=O)c1c(C(F)(F)F)ccc(-c2ccc3c(c2)CCNC3)c1-c1nnn[nH]1` [Example 721, 3-(1,2,3,4-tetrahydroisoquinolin-6-yl)-2-(1H-tetrazol-5-yl)-6-(trifluoromethyl)benzenesulfon-amide], the results for the half-maximal inhibitory concentration (IC50) on NDM-1, at IMP-1 and on VIM-1 (setting [4]) were 3.02 nM, 9.18 nM and 0.807 nM, respectively. Moreover, in assay [1], the “Serratia marcescens MITC95” value came out at 6.25 µM. Moreover, the “Klebsiella pneumoniae MITC95” value in assay [2] is 1.563 µM. The “Escherichia coli MITC95” value in assay [3] came to 6.25 µM.
`NS(=O)(=O)c1c(C(F)(F)F)ccc(-c2cccc(C3CCNC3)c2)c1-c1nnn[nH]1` (stereo not drawn) [Example 722, 3′-pyrrolidin-3-yl-2-(1H-tetrazol-5-yl)-4-(trifluoromethyl)biphenyl-3-sulfonamide]: the IC50 came out at 20.8 nM on NDM-1, 21.7 nM at IMP-1 and 1.46 nM on VIM-1 (setting [4]). For the same compound, the “Serratia marcescens MITC95” value in assay [1] was found to be 25 µM. Also, the “Klebsiella pneumoniae MITC95” value in assay [2] was determined as 6.25 µM. Further, the “Escherichia coli MITC95” value in assay [3] turned out to be 12.5 µM.
Turning to `NS(=O)(=O)c1c(C(F)(F)F)ccc(-c2cccc(N3CCNCC3)c2)c1-c1nnn[nH]1` [Example 723, 3′-piperazin-1-yl-2-(1H-tetrazol-5-yl)-4-(trifluoromethyl)biphenyl-3-sulfonamide], the IC50 on NDM-1 is 7.78 nM; at IMP-1, 17.2 nM; at VIM-1 (setting [4]), 1.26 nM. The “Serratia marcescens MITC95” value in assay [1] is 25 µM. Besides, the “Klebsiella pneumoniae MITC95” value in assay [2] was determined as 12.5 µM. Besides, the “Escherichia coli MITC95” value in assay [3] was found to be 6.25 µM.
As for `NS(=O)(=O)c1c(C(F)(F)F)ccc(-c2cccc3c2OCCN3)c1-c1nnn[nH]1` [Example 724, 3-(3,4-dihydro-2H-1,4-benzoxazin-8-yl)-2-(1H-tetrazol-5-yl)-6-(trifluoromethyl)benzenesulfon-amide], the values for the IC50 on NDM-1, on IMP-1 and on VIM-1 (setting [4]) were 1.15 nM, 2.44 nM and 0.862 nM, respectively. For the same compound, the “Serratia marcescens MITC95” value in assay [1] was determined as 6.25 µM. Also, in assay [2], the “Klebsiella pneumoniae MITC95” value came to 12.5 µM. The “Escherichia coli MITC95” value in assay [3] worked out at 6.25 µM.
Take `CC(CO)(CO)c1ccc(-c2ccc(C(F)(F)F)c(S(N)(=O)=O)c2-c2nnn[nH]2)cc1` [Example 725, 4′-[2-hydroxy-1-(hydroxymethyl)-1-methylethyl]-2-(1H-tetrazol-5-yl)-4-(trifluoromethyl)biphenyl-3-sulfonamide]: the figures for the IC50 on NDM-1, on IMP-1 and at VIM-1 (setting [4]) were 0.767 nM, 0.92 nM and 1.27 nM, respectively. Also, the “Serratia marcescens MITC95” value in assay [1] is 6.25 µM. Further, the “Klebsiella pneumoniae MITC95” value in assay [2] stood at 25 µM. In addition, in assay [3], the “Escherichia coli MITC95” value was 12.5 µM.
Turning to `CNC1CCc2c(-c3ccc(C(F)(F)F)c(S(N)(=O)=O)c3-c3nnn[nH]3)cccc21` (stereo not drawn) [Example 726, 3-[1-(methylamino)-2,3-dihydro-1H-inden-4-yl]-2-(1H-tetrazol-5-yl)-6-(trifluoromethyl)benzenesulfon-amide], the IC50 on NDM-1 was found to be 26.8 nM; on IMP-1, 58.9 nM; at VIM-1 (setting [4]), 1.21 nM. In assay [1], the “Serratia marcescens MITC95” value was 25 µM. Also, the “Klebsiella pneumoniae MITC95” value in assay [2] was determined as 3.125 µM. In addition, in assay [3], the “Escherichia coli MITC95” value came to 12.5 µM.
With `N[C@@H]1CCCN(c2ccc(-c3ccc(C(F)(F)F)c(S(N)(=O)=O)c3-c3nnn[nH]3)cc2)C1` [Example 727, 4′-[(3R)-3-aminopiperidin-1-yl]-2-(1H-tetrazol-5-yl)-4-(trifluoromethyl)biphenyl-3-sulfonamide], the IC50 on NDM-1 turned out to be 2.13 nM; at IMP-1 it was 1.97 nM; at VIM-1 (setting [4]) it was 0.914 nM. Besides, in assay [1], the “Serratia marcescens MITC95” value was determined as 3.125 µM. For the same compound, in assay [2], the “Klebsiella pneumoniae MITC95” value was 25 µM. Besides, in assay [3], the “Escherichia coli MITC95” value came out at 3.125 µM.
In the case of `NC1(c2ccc(-c3ccc(C(F)(F)F)c(S(N)(=O)=O)c3-c3nnn[nH]3)cc2)CC(O)C1` (stereo not drawn) [Example 728, 4′-(1-amino-3-hydroxycyclobutyl)-2-(1H-tetrazol-5-yl)-4-(trifluoromethyl)biphenyl-3-sulfonamide], the IC50 at NDM-1 is 2.58 nM; on IMP-1, 4.16 nM; at VIM-1 (VIM-1 IC50, VIM-1 enzyme), 4 nM. The “Serratia marcescens MITC95” value in assay [1] was found to be 6.25 µM. Besides, the “Klebsiella pneumoniae MITC95” value in assay [2] amounted to 25 µM. Moreover, in assay [3], the “Escherichia coli MITC95” value was determined as 3.125 µM.
Take `NC1(c2ccc(-c3ccc(C(F)(F)F)c(S(N)(=O)=O)c3-c3nnn[nH]3)cc2)CCCC1` [Example 729, 4′-(1-aminocyclopentyl)-2-(1H-tetrazol-5-yl)-4-(trifluoromethyl)biphenyl-3-sulfonamide]: the IC50 was 4.85 nM at NDM-1, 6.97 nM at IMP-1 and 7.37 nM at VIM-1 (setting [4]). Also, the “Serratia marcescens MITC95” value in assay [1] came out at 6.25 µM. Besides, in assay [2], the “Klebsiella pneumoniae MITC95” value came to 25 µM. Further, the “Escherichia coli MITC95” value in assay [3] turned out to be 6.25 µM.
`NC1(c2ccc(-c3ccc(C(F)(F)F)c(S(N)(=O)=O)c3-c3nnn[nH]3)cc2)CCOC1` (stereo not drawn) [Example 730, 4′-(3-aminotetrahydrofuran-3-yl)-2-(1H-tetrazol-5-yl)-4-(trifluoromethyl)biphenyl-3-sulfonamide]: the IC50 is 2.8 nM on NDM-1, 3.57 nM on IMP-1 and 6 nM on VIM-1 (setting [4]). Besides, the “Serratia marcescens MITC95” value in assay [1] worked out at 3.125 µM. In assay [2], the “Klebsiella pneumoniae MITC95” value worked out at 50 µM. Also, the “Escherichia coli MITC95” value in assay [3] came out at 3.125 µM.
Regarding `NC1CCCc2ccc(-c3ccc(C(F)(F)F)c(S(N)(=O)=O)c3-c3nnn[nH]3)cc21` (stereo not drawn) [Example 731, 3-(8-amino-5,6,7,8-tetrahydronaphthalen-2-yl)-2-(1H-tetrazol-5-yl)-6-(trifluoromethyl)benzenesulfon-amide], the IC50 at NDM-1 turned out to be 61.3 nM; at IMP-1 it was 117 nM; against VIM-1 (VIM-1 IC50, VIM-1 enzyme), 22.1 nM. In addition, in assay [1], the “Serratia marcescens MITC95” value is 50 µM. Further, in assay [2], the “Klebsiella pneumoniae MITC95” value was 50 µM. The “Escherichia coli MITC95” value in assay [3] amounted to 25 µM.
Take `Nc1nc(-c2ccc(-c3ccc(C(F)(F)F)c(S(N)(=O)=O)c3-c3nnn[nH]3)cc2)cs1` [Example 732, 4′-(2-amino-1,3-thiaozl-4-yl)-2-(1H-tetrazol-5-yl)-4-(trifluoromethyl)biphenyl-3-sulfonamide]: the IC50 came out at 0.534 nM on NDM-1, 0.384 nM at IMP-1 and 0.69 nM on VIM-1 (setting [4]). Besides, the “Serratia marcescens MITC95” value in assay [1] came out at 3.125 µM. Further, the “Klebsiella pneumoniae MITC95” value in assay [2] was 25 µM. Further, in assay [3], the “Escherichia coli MITC95” value turned out to be 0.7813 µM.
As to `NCC1COc2ccc(-c3ccc(C(F)(F)F)c(S(N)(=O)=O)c3-c3nnn[nH]3)cc21` (stereo not drawn) [Example 733, 3-[3-(aminomethyl)-2,3-dihydro-1-benzofuran-5-yl]-2-(1H-tetrazol-5-yl)-6-(trifluoromethyl)benzenesulfon-amide], the IC50 on NDM-1 turned out to be 33.5 nM; on IMP-1, 34.3 nM; on VIM-1 (setting [4]), 1.47 nM. Also, the “Serratia marcescens MITC95” value in assay [1] amounted to 25 µM. In assay [2], the “Klebsiella pneumoniae MITC95” value amounted to 6.25 µM. The “Escherichia coli MITC95” value in assay [3] was found to be 12.5 µM.
As for `NCCc1cccc(-c2ccc(C(F)(F)F)c(S(N)(=O)=O)c2-c2nnn[nH]2)c1` [Example 734, 3′-(2-aminoethyl)-2-(1H-tetraozl-5-yl)-4-(trifluoromethyl)biphenyl-3-sulfonamide], the IC50 at NDM-1 worked out at 31.4 nM; on IMP-1, 34.4 nM; at VIM-1 (setting [4]), 3.27 nM. The “Serratia marcescens MITC95” value in assay [1] stood at 25 µM. Besides, the “Klebsiella pneumoniae MITC95” value in assay [2] came out at 12.5 µM. The “Escherichia coli MITC95” value in assay [3] was 12.5 µM.
